Values joined by “and” are separate entries in the source; they are usually repeats but may differ in a detail not shown here. Equal values may be shown once. “Also recorded” adds a separate entry of the source.
Tests used:
[1] = tested on: GDNF; test: GDNF induction in human retinal progenitor cells (hRPC) (ELISA); assay type: cell-based
Description: (§1) GDNF induction […] was assessed using three retinal-specific cell systems: ARPE19, as a model for human retinal pigment epithelium; human retinal progenitor cells (hRPC), as a substitute for human retinal neurons/glia; and mouse eyecups, differentiated from induced pluripotent stem cells. ARPE19 cells are described in Dunn et al., Exp. Eye Res. 62: 155-169, 1996. To study GDNF induction in a human retinal pigment epithelium cell line, ARPE19, thawed ARPE19 cells (passage 33, ATCC) were plated on fibronectin (Akron)-coated plates (Nunc) in stimulation medium at a density of 10 k cells/sq.cm. The flasks were incubated at standard conditions: 37° C., 5% CO2, 100% humidity. Cells were plated 24 hours prior to Compound I treatment and were grown in Ultraculture medium (Lonza), supplemented with 1×MEM NEAA (Gibco), 1× L-glutamine (Gibco), 1× Antibiotic/antimycotic (Gibco), 2 ng/ml bFGF (Peprotech), 1 ng/ml EGF (Peprotech). For qPCR analysis, the experiments were performed in 35 mm Petri dishes in 2 ml of medium with Compound I concentration of 100 nM (DMSO-based solution). Total mRNA was isolated at 0, 15, 30, 60, 120, 240 minutes post stimulation. For protein expression determination by ELISA, the experiments were performed in 96 well plates in 100 ul of medium with each condition (concentrations ranging from 0 to 10 uM) reproduced in 3 wells. For ELISA analysis, plates were removed from out of incubator 24 hours post stimulation and freeze-thawed followed by CHAPS lysis buffer treatment for total […] extraction. The ELISA analysis for GDNF was performed using GDNF DuoSet kit (R&D systems) using manufacturer's instructions.
Experiments with human retinal progenitor cell line (hRPC) were performed in a similar manner (Baranov et al., Tissue Eng Part A 20, 140124133442001-1475 (2014)): hRPC were thawed and plated (passage 15) in 96 well plates using the same conditions and density as described above for ARPE19. The cell treatment, sample collection and readout were performed using the same protocol. […]

[2] = tested on: GDNF; test: GDNF protein induction in ARPE19 cells (ELISA); assay type: cell-based, human
Description: as §1

[3] = tested on: photoreceptors; test: Photoreceptor rescue by Compound I suspension in rhodopsin knockout mice (H&E cell count); assay type: in vivo, mouse; conditions: rho-/- mice
Description: To study photoreceptor rescue by Compound I suspension (60 mg/ml), 2 ul of suspension (n=5) or Vehicle (n=5) were administered intravitreally to 4-week old rhodopsin knockout mice using a beveled glass needle, connected to a Hamilton syringe through polyethylene tubing. During the injection, corneal paracenthesis was performed to reduce intraocular pressure. 10 weeks after the injection, eyes were enucleated and fixed in Davidson solution for histological processing: paraffin embedding and sectioning. Six micron thick sections were cut in the area close to optic nerve head (ONH) and stained with hematoxylin-eosin (H&E) or processed for immunohistochemical analysis (IHC). H&E-stained sections were imaged (Olympus imaging system DP72) and total photoreceptor number was estimated based on the nuclei count in the outer nuclear layer (ONL). Cells were counted in each 100 um retina span starting from optic nerve head on three sections for each eye (five eyes per group). Total photoreceptor number per section was also calculated.

[4] = tested on: GDNF; test: GDNF induction by Compound I suspension in wild-type mice; assay type: in vivo, mouse; conditions: suspension intravitreally; for GDNF mRNA induction vs. vehicle / GDNF protein level vs. vehicle: wild-type mice
Description: To study GDNF induction by Compound I suspension (60 mg/ml), 2 ul of suspension (n=35) or Vehicle (n=5) were administered intravitreally to 3-week old wild-type (C57/Bl6) mice. A beveled glass needle connected to a Hamilton syringe through polyethylene tubing was ysed. During the injection, corneal paracenthesis was performed to reduce intraocular pressure.
Animals were euthanized at several timepoints after injection for enucleation and RNA/protein analysis (n=5 for each timepoint, n=4 for 7 days and 14 days): vehicle at 1 hour, Compound I at 1 hour, 1 day, 2 days, 7 days and 14 days. The treated and untreated eyes were enucleated and were collected for mRNA and protein expression as previously described. The treated and untreated eyes were enucleated and placed in 250 ul of chilled RNAlater buffer (Qiagen) and stored at 4° C. The eyes were excised and total neural retina with retinal pigment epithelium was collected into 400 ul of Lysis buffer (Qiagen RNeasy kit) with beta-mercaptoethanol. Total RNA was isolated using RNeasy kit (Qiagen) and eluted with 100 ul of Ultrapure water (Life technologies). All flow through from RNA isolation (˜2.4 ml) was collected and mixed with 10 ml of ice-cold (−20° C.) acetone for protein precipitation. The protein was precipitated at −20° C. for 30 minutes, then pelleted at 3500 rpm for 20 min. Pellets were washed once with 100% ethanol, then reconstituted with 300 ul of RIPA buffer with AEBSF. mRNA and protein expression were assessed by qPCR and Western blot (WB). The results were analyzed by ANOVA (p<0.05).

Structure (SMILES): COc1cc2c(cc1S(=O)(=O)c1ccc(OCc3ccc(Cl)cc3)cc1)CCN(C)CC2 [Compound I, 7-[4-(4-chloro-benzyloxy)-benzenesulfonyl]-8-methoxy-3-methyl-2,3,4,5-tetrahydro-1H-3-benzazepine]
- GDNF induction [1]: More than 2 fold
- GDNF induction, result in words ([1]; 0 to 10 uM): Significant dose-dependent GDNF induction
- concentration of Compound I at which GDNF was upregulated ([1]; ELISA, FIG. 1B): 1 µM
- GDNF induction ([2]; ARPE19): More than 2 fold
- GDNF induction, result in words ([2]; ARPE19, 0 to 10 uM): Significant dose-dependent GDNF induction
- concentration of Compound I at which GDNF was upregulated ([2]; ARPE19, ELISA, FIG. 1C): 3 µM
- increase of GDNF protein levels in vitro ([2]; in vitro, cell system not stated (mRNA was measured in ARPE19 only)): 1.8 fold
- increase in photoreceptor cell number pan-retinally compared to uninjected and vehicle ([3]; 2 ul of 60 mg/ml suspension intravitreally at 4 weeks of age, 10 weeks after injection): 2 fold and 2.1 fold
- total photoreceptor cells per section ([3]; suspension, 10 weeks after injection, uninjected 516, vehicle 508): 1210 cells per section
- retinal pigment epithelium, inner nuclear and ganglion cell layers, histology ([3]; suspension, 10 weeks after the treatment): no changes in the retinal pigment epithelium, inner nuclear or ganglion cell layers
- increase in photoreceptor cell number in the area close to the optic nerve head (ONH) ([3]; suspension, 200 micron area): 1.5 fold
- outer nuclear layer (ONL), histology ([3]; suspension, compared to vehicle-treated and untreated eyes): preserved; also recorded: significant increase in ONL thickness
- photoreceptors per 200 um close to the ONH ([3]; suspension, non-treated 46, vehicle control 39): 63 photoreceptors per 200 um
- GDNF mRNA upregulation over the time course ([4]; C57Bl/6 mice, up to 14 days): > 1.8 fold
- GDNF protein upregulation over the time course ([4]; C57Bl/6 mice, up to 14 days): > 2.8 fold
- GDNF mRNA induction vs. vehicle ([4]; 1 hour): 1.4 fold
- GDNF protein level vs. vehicle ([4]; 1 hour): 0.9 fold
- GDNF mRNA induction vs. vehicle ([4]; 1 day): 1.3 fold
- GDNF protein level vs. vehicle ([4]; 1 day): 1.6 fold
- GDNF mRNA induction vs. vehicle ([4]; 2 days): 1.2 fold
- GDNF protein level vs. vehicle ([4]; 2 days): 2.4 fold
- GDNF mRNA induction vs. vehicle ([4]; 7 days): 1.8 fold
- GDNF protein level vs. vehicle ([4]; 7 days): 2.7 fold
- GDNF mRNA induction vs. vehicle ([4]; 14 days): 1.8 fold
- GDNF protein level vs. vehicle ([4]; 14 days): 3.2 fold
